# Measurements published in US10709724B2, “Methods of treating mitochondrial dysfunction” (Ecole Polytechnique Federale de Lausanne (EPFL), priority 2011, dated 2020).
# How the values were obtained:
# HEK293T cells = assay: Nampt, PARP activity, glycolysis and ATP in NR-treated HEK293T cells; assay type: cell-based, human
# Protocol: (§1) mRNA and mtDNA Analysis. Total RNA was prepared using TRIzol (Invitrogen) according to the manufacturer's instructions. RNA was treated with DNase, and 2 μg of RNA was used for reverse transcription (RT). cDNA was purified on QIAquick PCR cleanup columns (Qiagen, Valencia, Calif., USA). 50× diluted cDNA was used for RT-quantitative PCR (RT-VCR) VCR) reactions (Bai et al., 2007). The RT-qPCR reactions were performed using the Light-Cycler system (Roche Applied Science) and a qPCR Supermix (Qiagen) with the primers for mice summarized in Table 1 and 4, and with the primers for worms summarized on Table 7. mtDNA quantification was performed as described (Lagouge et al., 2006) with the primers indicated in Table 2 and 5.
# Immunoprecipitation, SDS-PAGE, Western Blotting. […] Reactions were developed by enhanced chemiluminescence (Amersham, Little Chalfont, UK), PGC-1α, FOXO1 and Ndufa9 acetylation levels were analyzed by immunoprecipitation from cellular or nuclear lysates of tissues with anti-PGC-1α (Millipore), anti-FOXO1 (Cell Signaling, Danvers, Mass., USA) and anti-Ndufa9 (Abcam) antibody followed by Western blot using an acetyl-lysine antibody (Cell Signaling) that was normalized to total PGC-1a/FOXO1/Ndufa9 levels (Lagouge et al., 2006; Rodgers et al., 2005). […] All blots were quantified by densitometry using ImageJ software. […]
# C57Bl/6J male mice = assay: PJ34 treatment of mice (5 days); assay type: in vivo; conditions: 10 mg/kg i.p. twice a day
# Protocol: Animal Experiments. Male PARP-1^+/+ and PARP-1^−/− mice on a pure C57Bl/6J background (Menissier-de Murcia et al., 1997) were used. Mice were housed separately, had ad libitum access to water and standard rodent chow (10 kcal % of fat, Safe, Augy, France) or to a high calorie, high fat diet (60 kcal % of fat, Research. Diets, New Brunswick, N.J., USA), and were kept under a 12 h dark-light cycle. In other animal experiments, 8 weeks-old male C57Bl/6J mice were purchased from Charles River and powder chow (D12450B) and high fat (D12492) diets were from Research Diets Inc (New Brunswick, N.J., USA). 80 ml of water per kg of powder CD were used to make food pellets. 40 ml of water per kg of powder HFD were used to make food pellets. For NR, NMN and NA supplemented diets, the appropriate amount of these compounds was added to the water used to create the pellets, taking into account the differences in the daily intake of each diet. Mice were housed separately, had ad libitum access to water and food and were kept under a 12 h dark-light cycle. Mice were fed with homemade pellets from 10 weeks of age. To make the pellets, the powder food was mixed with water (vehicle) or with NR. All animal experiments were carried out according to local national and EU ethical guidelines. To monitor body weight, mice were weighed and the food consumption was measured each week on the same day. In case of PJ34 treatment, mice received each 12 h (at 7:00 and 19:00) 10 mg/kg PJ34 by intraperitoneal injection for 5 continuous days. In all studies animals were killed (at 14:00) either after CO2 inhalation or cervical dislocation after 6 h of fasting (starting at 8:00), and tissues were collected and processed as specified below. Oral glucose tolerance test, intraperitoneal insulin tolerance test, free fatty acid (FFA) and triglycerides were determined as described (Lagouge et al., 2006). Plasma insulin and was determined in heparinized plasma samples using specific ELISA kits (Mercodia). Blood samples were collected in heparinized tubes and plasma was isolated after centrifugation. Plasma parameters were measured using a Cobas c111 (Roche Diagnostics). Thermoadaptation was performed as described (Lagouge et al., 2006). We measured O2 consumption, CO2 production, and spontaneous locomotor activity in an open circuit indirect calorimetry system (Sabre systems, Las Vegas, Nev., USA) over 24-48 has described (Dali-Youcef et al., 2007; Lagouge et al., 2006; Watanabe et al., 2006). […] The respiratory quotient was the ratio of CO2 production over O2 consumption. During actimetry, beamline crossings were summarized each 15 minutes. […] Euglycemic-hyperinsulinemic clamps were performed in PARP-1^−/− and ^+/+ male mice (n=4 mice per genotype; age=4 months) exactly as previously described (Feige et al, 2008).
# as §1
# Immunoprecipitation, SDS-PAGE, Western Blotting. Cells were lysed in lysis buffer (50 mM Tris, […], EDTA 1 mM, NP40 1%, nicotinamide 5 mM, Na-butyrate 1 in M, protease inhibitors pH7.4). Proteins were separated by SDS-PAGE and transferred onto nitrocellulose membranes. The origin of the primary and secondary antibodies used can be found as supplemental experimental procedures. […]
Compound,cellular glycolytic rates or ATP levels (HEK293T cells),"Nampt mRNA or protein content (HEK293T cells; 0.5 mM, 24 hrs)",Dio2 mRNA in BAT (C57Bl/6J male mice),Myoglobin mRNA levels in muscle (C57Bl/6J male mice),NAD+ levels in BAT and muscle (C57Bl/6J male mice),PARP activity in BAT and muscle (C57Bl/6J male mice),PGC-1α acetylation levels in BAT and muscle (C57Bl/6J male mice),"mitochondrial gene expression in BAT and muscle (Ndufa2, Ndufa5, UCP2, UCP3) (C57Bl/6J male mice)","triglycerides (C57Bl/6J male mice; vehicle 1.21±0.08, p=0.08) [mM]","free fatty acid levels (C57Bl/6J male mice; vehicle 1.59±0.06, p=0.03) [mEq/L]","blood glucose (C57Bl/6J male mice; vehicle 9.94±0.28, p=0.05) [mM]"
"NC(=O)c1ccc[n+]([C@@H]2O[C@H](CO)[C@@H](O)[C@H]2O)c1 [NR, nicotinamide riboside]",not linked to changes in cellular glycolytic rates or ATP levels,could not see any change,–,–,–,–,–,–,–,–,–
CN(C)CC(=O)Nc1ccc2[nH]c(=O)c3ccccc3c2c1 [PJ34],–,–,significantly induced,increase in Myoglobin mRNA levels,"edged up in PJ34-treated animals, even though the increase was only statistically significant in muscle",robustly decrease PARP activity,reduced PGC-1α acetylation levels,tendency to a higher expression of a number of mitochondrial genes,1.11 ± 0.04,1.44±0.03,9.19 ± 0.58
